Measured values published in ChEMBL document CHEMBL3885861, “Open TG-GATES”.

Species: Rattus norvegicus
Test: Open TG-GATES - Regimen: Daily Repeat
Format: toxicity, organism-based, Sprague-Dawley
Set-up: regimen Daily Repeat, gender Male, age 6 weeks
Details: in vivo, po, route gavage; for APTT / Bas / Eos / Fbg / Hb / Ht / Lym / MCHC / MCV / Mono / Neu / PT / Plat / RBC / Ret / WBC: tissue Blood; for KIDNEY_L / KIDNEY_R / KIDNEY_TOTAL: tissue Kidney; for LIVER: tissue Liver; for ALP / ALT / AST / CRE / DBIL / GLC / IP / K / LDH / Na / PL / RALB / TBIL / TC / TG / TP / gamma-GTP: tissue Plasma
[1] = 0 mg/kg, 72 h, dose level Control, time 3 day
[2] = 0 mg/kg, […], dose level Control, time 7 day
[3] = 0 mg/kg, […], dose level Control, time 14 day
[4] = 0 mg/kg, […], dose level Control, time 28 day
[5] = 100 mg/kg, 72 h, dose level Low, time 3 day
[6] = 100 mg/kg, […], dose level Low, time 7 day
[7] = 100 mg/kg, […], dose level Low, time 14 day
[8] = 100 mg/kg, […], dose level Low, time 28 day

SMILES: C#C[C@]1(O)CC[C@H]2[C@@H]3CCC4=Cc5oncc5C[C@]4(C)[C@H]3CC[C@@]21C [DANAZOL]
- TERMINAL_BW [1]: 236.4 g
- APTT [1]: 23.9 s
- Bas [1]: 0%
- Eos [1]: 0.8%
- Fbg [1]: 304.4 mg/dL
- Hb [1]: 13.4 g/dL
- Ht [1]: 40.8%
- Lym [1]: 77.4%
- MCHC [1]: 32.7%
- MCV [1]: 63.8 fL
- Mono [1]: 3%
- Neu [1]: 17.2%
- PT [1]: 15.5 s
- Plat [1]: 120.7 x10_4/uL
- RBC [1]: 639.8 x10_4/ul
- Ret [1]: 6.7%
- WBC [1]: 80.8 x10_2/uL
- KIDNEY_L [1]: 1 g
- KIDNEY_R [1]: 1 g
- KIDNEY_TOTAL [1]: 2 g
- LIVER [1]: 11.6 g
- ALP [1]: 1436.8 IU/L
- ALT [1]: 45.8 IU/L
- AST [1]: 72.4 IU/L
- CRE [1]: 0.2 mg/dL
- DBIL [1]: 0 mg/dL
- GLC [1]: 197.6 mg/dL
- IP [1]: 7.8 mg/dL
- K [1]: 4.2 meq/L
- LDH [1]: 190 IU/L
- Na [1]: 142.6 meq/L
- PL [1]: 140 mg/dL
- RALB [1]: 3.1 g/dL
- TBIL [1]: 0.008 mg/dL
- TC [1]: 72.2 mg/dL
- TG [1]: 95.6 mg/dL
- TP [1]: 5.5 g/dL
- gamma-GTP [1]: 1.6 IU/L
- TERMINAL_BW [2]: 266.9 g
- TERMINAL_BW [3]: 328.6 g
- TERMINAL_BW [4]: 402.2 g
- APTT [2]: 22.8 s
- Bas [2]: 0%
- Eos [2]: 1%
- Fbg [2]: 302.8 mg/dL
- Hb [2]: 13.8 g/dL
- Ht [2]: 40.8%
- Lym [2]: 76.8%
- MCHC [2]: 33.9%
- MCV [2]: 60.1 fL
- Mono [2]: 3%
- Neu [2]: 18.8%
- PT [2]: 15.2 s
- Plat [2]: 116.5 x10_4/uL
- RBC [2]: 678.8 x10_4/ul
- Ret [2]: 5.9%
- WBC [2]: 114.8 x10_2/uL
- APTT [3]: 24.6 s
- Bas [3]: 0%
- Eos [3]: 0.8%
- Fbg [3]: 325.6 mg/dL
- Hb [3]: 14.5 g/dL
- Ht [3]: 41.5%
- Lym [3]: 83%
- MCHC [3]: 34.9%
- MCV [3]: 60.6 fL
- Mono [3]: 2%
- Neu [3]: 13.4%
- PT [3]: 15.3 s
- Plat [3]: 124.1 x10_4/uL
- RBC [3]: 685.8 x10_4/ul
- Ret [3]: 3.8%
- WBC [3]: 122.1 x10_2/uL
- APTT [4]: 23.5 s
- Bas [4]: 0%
- Eos [4]: 1%
- Fbg [4]: 293 mg/dL
- Hb [4]: 14.6 g/dL
- Ht [4]: 42.9%
- Lym [4]: 82.8%
- MCHC [4]: 34.1%
- MCV [4]: 57.9 fL
- Mono [4]: 1.8%
- Neu [4]: 13.6%
- PT [4]: 15.9 s
- Plat [4]: 101.9 x10_4/uL
- RBC [4]: 740 x10_4/ul
- Ret [4]: 2.1%
- WBC [4]: 119.8 x10_2/uL
- KIDNEY_L [2]: 1.1 g
- KIDNEY_R [2]: 1.1 g
- KIDNEY_TOTAL [2]: 2.3 g
- KIDNEY_L [3]: 1.3 g
- KIDNEY_R [3]: 1.4 g
- KIDNEY_TOTAL [3]: 2.7 g
- KIDNEY_L [4]: 1.4 g
- KIDNEY_R [4]: 1.4 g
- KIDNEY_TOTAL [4]: 2.8 g
- LIVER [2]: 12 g
- LIVER [3]: 14.6 g
- LIVER [4]: 15.8 g
- ALP [2]: 1763.8 IU/L
- ALT [2]: 42 IU/L
- AST [2]: 69.6 IU/L
- CRE [2]: 0.2 mg/dL
- DBIL [2]: 0 mg/dL
- GLC [2]: 202.8 mg/dL
- IP [2]: 7.2 mg/dL
- K [2]: 4.4 meq/L
- LDH [2]: 184 IU/L
- Na [2]: 141.8 meq/L
- PL [2]: 157 mg/dL
- RALB [2]: 3 g/dL
- TBIL [2]: 0.004 mg/dL
- TC [2]: 80.4 mg/dL
- TG [2]: 106.8 mg/dL
- TP [2]: 5.5 g/dL
- gamma-GTP [2]: 1.6 IU/L
- ALP [3]: 1603.8 IU/L
- ALT [3]: 36.8 IU/L
- AST [3]: 65.6 IU/L
- CRE [3]: 0.2 mg/dL
- DBIL [3]: 0 mg/dL
- GLC [3]: 188.2 mg/dL
- IP [3]: 7.2 mg/dL
- K [3]: 4.2 meq/L
- LDH [3]: 186.6 IU/L
- Na [3]: 142.2 meq/L
- PL [3]: 158 mg/dL
- RALB [3]: 3.1 g/dL
- TBIL [3]: 0.004 mg/dL
- TC [3]: 74.4 mg/dL
- TG [3]: 139.8 mg/dL
- TP [3]: 5.8 g/dL
- gamma-GTP [3]: 3 IU/L
- ALP [4]: 1301.4 IU/L
- ALT [4]: 41.8 IU/L
- AST [4]: 63.8 IU/L
- CRE [4]: 0.2 mg/dL
- DBIL [4]: 0 mg/dL
- GLC [4]: 200.4 mg/dL
- IP [4]: 6.4 mg/dL
- K [4]: 4 meq/L
- LDH [4]: 141.6 IU/L
- Na [4]: 141.8 meq/L
- PL [4]: 144.2 mg/dL
- RALB [4]: 3 g/dL
- TBIL [4]: 0 mg/dL
- TC [4]: 71 mg/dL
- TG [4]: 118.2 mg/dL
- TP [4]: 5.9 g/dL
- gamma-GTP [4]: 3.4 IU/L
- TERMINAL_BW [5]: 235.6 g
- APTT [5]: 23.6 s
- Bas [5]: 0%
- Eos [5]: 1%
- Fbg [5]: 344.8 mg/dL
- Hb [5]: 13.5 g/dL
- Ht [5]: 41%
- Lym [5]: 77%
- MCHC [5]: 32.8%
- MCV [5]: 63 fL
- Mono [5]: 2.8%
- Neu [5]: 19%
- PT [5]: 16.3 s
- Plat [5]: 115.1 x10_4/uL
- RBC [5]: 651.2 x10_4/ul
- Ret [5]: 6.3%
- WBC [5]: 91.5 x10_2/uL
- KIDNEY_L [5]: 1 g
- KIDNEY_R [5]: 1 g
- KIDNEY_TOTAL [5]: 2.1 g
- LIVER [5]: 11.7 g
- ALP [5]: 1493.6 IU/L
- ALT [5]: 45.6 IU/L
- AST [5]: 72.4 IU/L
- CRE [5]: 0.2 mg/dL
- DBIL [5]: 0 mg/dL
- GLC [5]: 187.2 mg/dL
- IP [5]: 7 mg/dL
- K [5]: 4.3 meq/L
- LDH [5]: 168.2 IU/L
- Na [5]: 143 meq/L
- PL [5]: 131.2 mg/dL
- RALB [5]: 3.1 g/dL
- TBIL [5]: 0 mg/dL
- TC [5]: 55.2 mg/dL
- TG [5]: 161.4 mg/dL
- TP [5]: 5.7 g/dL
- gamma-GTP [5]: 1.8 IU/L
- TERMINAL_BW [6]: 261.4 g
- TERMINAL_BW [7]: 310 g
- TERMINAL_BW [8]: 405.6 g
- APTT [6]: 25 s
- Bas [6]: 0%
- Eos [6]: 0.4%
- Fbg [6]: 318 mg/dL
- Hb [6]: 13.7 g/dL
- Ht [6]: 40.4%
- Lym [6]: 84%
- MCHC [6]: 33.9%
- MCV [6]: 60.1 fL
- Mono [6]: 2%
- Neu [6]: 13%
- PT [6]: 15.7 s
- Plat [6]: 117.6 x10_4/uL
- RBC [6]: 672.6 x10_4/ul
- Ret [6]: 5.1%
- WBC [6]: 112.4 x10_2/uL
- APTT [7]: 26.6 s
- Bas [7]: 0%
- Eos [7]: 0.8%
- Fbg [7]: 354.4 mg/dL
- Hb [7]: 14.5 g/dL
- Ht [7]: 41.1%
- Lym [7]: 84.8%
- MCHC [7]: 35.2%
- MCV [7]: 60.3 fL
- Mono [7]: 1.8%
- Neu [7]: 12%
- PT [7]: 16.2 s
- Plat [7]: 134.9 x10_4/uL
- RBC [7]: 681.2 x10_4/ul
- Ret [7]: 3.3%
- APTT [8]: 26.9 s
- Bas [8]: 0%
- Eos [8]: 1%
- Fbg [8]: 326.6 mg/dL
- Hb [8]: 14.5 g/dL
- Ht [8]: 42.4%
- Lym [8]: 78.8%
- MCHC [8]: 34.2%
- MCV [8]: 56.1 fL
- Mono [8]: 1.6%
- Neu [8]: 17.6%
- PT [8]: 17.1 s
- Plat [8]: 109.1 x10_4/uL
- RBC [8]: 756.2 x10_4/ul
- Ret [8]: 2.4%
- WBC [8]: 85.7 x10_2/uL
- KIDNEY_L [6]: 1.1 g
- KIDNEY_R [6]: 1.1 g
- KIDNEY_TOTAL [6]: 2.2 g
- KIDNEY_L [7]: 1.3 g
- KIDNEY_R [7]: 1.3 g
- KIDNEY_TOTAL [7]: 2.6 g
- KIDNEY_L [8]: 1.5 g
- KIDNEY_R [8]: 1.5 g
- KIDNEY_TOTAL [8]: 2.9 g
- LIVER [6]: 12.7 g
- LIVER [7]: 14.9 g
- LIVER [8]: 18.3 g
- ALP [6]: 1505.8 IU/L
- ALT [6]: 39.6 IU/L
- AST [6]: 65 IU/L
- CRE [6]: 0.2 mg/dL
- DBIL [6]: 0 mg/dL
- GLC [6]: 181.8 mg/dL
- IP [6]: 6.2 mg/dL
- K [6]: 4.4 meq/L
- LDH [6]: 139.6 IU/L
- Na [6]: 143.2 meq/L
- PL [6]: 128.4 mg/dL
- RALB [6]: 3 g/dL
- TBIL [6]: 0.002 mg/dL
- TC [6]: 51.8 mg/dL
- TG [6]: 140.4 mg/dL
- TP [6]: 5.6 g/dL
- gamma-GTP [6]: 2.2 IU/L
- ALP [7]: 1681.6 IU/L
- ALT [7]: 38.4 IU/L
- AST [7]: 57.4 IU/L
- CRE [7]: 0.2 mg/dL
- DBIL [7]: 0 mg/dL
- GLC [7]: 182.8 mg/dL
- IP [7]: 6.8 mg/dL
- K [7]: 4.1 meq/L
- LDH [7]: 154 IU/L
- Na [7]: 143.6 meq/L
- PL [7]: 132.8 mg/dL
- RALB [7]: 3.1 g/dL
- TBIL [7]: 0 mg/dL
- TC [7]: 49 mg/dL
- TG [7]: 177.6 mg/dL
- TP [7]: 6 g/dL
- gamma-GTP [7]: 2.6 IU/L
- ALP [8]: 1348.8 IU/L
- ALT [8]: 39.8 IU/L
- AST [8]: 59.2 IU/L
- CRE [8]: 0.2 mg/dL
- DBIL [8]: 0 mg/dL
- GLC [8]: 191.4 mg/dL
- IP [8]: 6.1 mg/dL
- K [8]: 3.9 meq/L
- LDH [8]: 121.8 IU/L
- Na [8]: 142.8 meq/L
- PL [8]: 142.4 mg/dL
- RALB [8]: 3 g/dL
- TBIL [8]: 0 mg/dL
- TC [8]: 46.6 mg/dL
- TG [8]: 334.4 mg/dL
- TP [8]: 6.2 g/dL
- gamma-GTP [8]: 3.2 IU/L
